Results on five molecules are retold here after US12552738B2, “Crystal forms of amino lipids” (ModernaTX, Inc., priority 2017, dated 2026).

Common to all, as to format: physicochemical
Series [1] is described as follows: Dynamic vapor sorption (DVS) isotherm, hygroscopicity. As to conditions: for Hygroscopicity / form change after DVS: salts or cocrystals of Compound 1; for Hygroscopicity: DVS isotherm at 25° C.; for form change after DVS: XRPD before and after DVS test at 25° C.; for Hygroscopicity/purity decrease: MC3 and MC3 trimesate, water uptake up to 80% RH at 25° C.; for water uptake, adsorption isotherm / water uptake, desorption isotherm: 80% relative humidity, 25° C. On the procedure:
DVS was measured on via a SMS (Surface Measurement Systems) DVS Intrinsic. The relative humidity at 25° C. were calibrated against deliquescence point of LiCl, Mg(NO3)2 and KCl.

Series [2] is described as follows: HPLC purity before and after the DVS experiment. The settings on record: samples prepared with crude and purified free base. On the procedure: Trimesate Type A samples were prepared according to the procedure described in the foregoing, using the crude free base (HPLC purity of 88.5 area %) or purified free base (HPLC purity of 97.6 area %) as starting material, and analyzed by HPLC.

A short description of another series: free base pKa.
[3] abbreviates: listed as 4-hydroxybenzoate Polymorph A.
The mark [4] stands for this setting: listed as trimellitate Polymorph A.

Entries after “also recorded” stand apart in the source; their conditions may differ.

“heptadecan-9-yl 8-((2-hydroxyethyl)amino)octanoate 4-hydroxybenzoate [4-Hydroxybenzoate Polymorph A]”: the Hygroscopicity result is “Non-hygroscopic” in series [1], “non-hygroscopic” in series [1] (setting [3]), “non-hygroscopic” in series [1] (listed as 4-hydroxybenzoate of Compound 1) and “low hygroscopicity” in series [1] (listed as Polymorph A of 4-hydroxybenzoate of Compound 1). Moreover, the results for the “form change after DVS” value in series [1] and in series [1] (setting [3]) were “(no)” and “no form change”, respectively.

For “(6Z,9Z,28Z,31Z)-heptatriaconta-6,9,28,31-tetraen-19-yl 4-(dimethylamino)butanoate trimesate [Trimesate Type A]”, the Hygroscopicity/purity decrease result in series [1] is recorded as “Non-hygroscopic”; in series [1] (listed as trimesate Type A), “non-hygroscopic (Hygroscopicity concluded using the water uptake up to 80% RH at 25° C.: < 0.2% for non-hygroscopic)”; in series [1] (listed as trimesate of MC3) it was “non-hygroscopic (Hygroscopicity concluded using the water uptake up to 80% RH at 25° C.: < 0.2% for non-hygroscopic)”. In addition, the “HPLC purity change after the DVS experiment” value in series [2] is “No significant HPLC purity change”.

Consider “heptadecan-9-yl 8-((2-hydroxyethyl)amino)octanoate trimellitate [Trimellitate Polymorph A]”, for which, in series [1], the Hygroscopicity entry was “Slightly hygroscopic” and the “form change after DVS” value was “(no)”. In series [1] (setting [4]), the Hygroscopicity entry is given as “slightly hygroscopic” and the “form change after DVS” value is “no form change”.

Regarding `CCCCC/C=C\C/C=C\CCCCCCCCC(CCCCCCCC/C=C\C/C=C\CCCCC)OC(=O)CCCN(C)C` [MC3, (6Z,9Z,28Z,31Z)-heptatriaconta-6,9,28,31-tetraen-19-yl 4-(dimethylamino)butanoate, reference compound], in series [1] (listed as crude free base), the “water uptake, adsorption isotherm” value was 0.24%; the “water uptake, desorption isotherm” value amounted to 0.27%; the Hygroscopicity/purity decrease result was “slightly hygroscopic”. In addition, in series [1] (listed as pure free base), the “water uptake, adsorption isotherm” value came out at 0.14% and the “water uptake, desorption isotherm” value is listed as 0.17%. Besides, the pKa in “free base pKa” was over 8.

“heptadecan-9-yl 8-((2-hydroxyethyl)amino)octanoate orotate [Orotate Polymorph B]”: the Hygroscopicity entry in series [1] was “slightly hygroscopic; also recorded: Hygroscopic”.

Usually pKa stands for the negative logarithm of the acid dissociation constant. Low readings indicate a group that gives up its proton readily, high ones a group that holds its proton tightly.
